According to patent publication US4598076A, “2-pyrrolin-3-carbonitril-derivatives, pharmaceutical compositions containing them and their anti-inflammatory and ulcer protective activity” (Warner-Lambert Company, priority 1982, dated 1986):

Tests used:
[1] = test system: carrageenin oedema in rats; test: Antiphlogistic action against carrageenin oedema in rats; type: in vivo, rats (SIV 50); conditions: for inhibition of the paw volume: 3 hours after carrageenin; for antiphlogistic properties (in words): carrageenin oedema
Protocol: The experimental animals used were male rats (SIV 50), fasting for 20 hours, with a body weight of 110 to 160 g. Water was available ad libitum. After determination of the initial value of the paw volume of the right hind leg, the test substance was administered intragastrally as a suspension in 1% tragacanth slurry. 10 animals were used per dosage group. The volume administered was 20 ml./kg. body weight. The paw volume was measured by means of mercury displacement. 60 minutes after intragastral administration of the test substances, 0.1 ml. of a 1% carrageenin solution was injected subplantarily into the right hind paw. 1 and 3 hours after injection of the carrageenin, the paw volume of the oedematous paw was measured. The increase of the paw volume of the test substance-treated animals after 3 hours was compared with that of the control animals and the inhibition of the paw oedema by the test substance was calculated therefrom as a percentage.

[2] = test system: stomach ulcers in rats induced by indomethacin; test: Ulcer-protective action on stomach ulcers in rats induced by indomethacin; type: in vivo, rats (SIV 50); conditions: with 40 mg/kg indomethacin, 5 hours
Protocol: The experimental animals used were male rats (SIV 50), fasted for 20 hours, with a body weight of 170 to 220 g. Water was available ad libitum. The animals were simultaneously given intragastrally 40 mg./kg. indomethacin and the test substance in the form of a suspension in 0.8% "Methocel". The control animals only received the corresponding dosage of indomethacin. 10 animals were used for each experimental group. The volume administered was 10 ml./kg. body weight. 5 hours after administration, the animals were sacrificed. After removal of the stomach and opening along the curvatura major, this was investigated with a stereomagnifier for the presence of ulcers. […] The ulcer index of the animals treated with indomethacin and test substance was compared with that of the control animals which had only been treated with indomethacin and the ulcer inhibition calculated therefrom as a percentage.

[3] = test system: gastric juice secretion in rats; test: Influence on gastric juice secretion in rats (Shay, pyloric ligature); type: in vivo, rats (SIV 50); conditions: 4 hours after pyloric ligature
Protocol: According to the method described by H. Shay et al. (Gastroenterology, 5, 43-61/1945), male rats (SIV 50) with a body weight of 160 to 200 g. were fasted for 48 hours before commencement of the experiment. Water was available to the animals ad libitum. The test substances were administered intragastrally as a suspension in 1% tragacanth slurry. The volume administered was 10 ml./kg. body weight. 8 animals were used per experimental group. One hour after administration of the substance, a pyloric ligature was applied under light ether narcosis. 4 hours after this intervention, the animals were sacrificed. The extirpated stomach was opened up along the curvatura major and the volume of the secretion was measured and compared with the data obtained from the control group.

[4] = Acute toxicity on mice (LD50, 7 day observation); conditions: mouse, in vivo, po; male NMRI mice, intragastral, 7 day observation
Protocol: (§1) The determination of the acute toxicity was carried out on male mice (NMRI) with a body weight of from 18 to 23 g. All the experimental animals fasted for 20 hours before commencement of the experiment. Water was available ad libitum. Each dosage grouping contained 4 animals. The dosage sequence was logarithmic. The test compounds were administered intragastrally as suspensions in 1% tragacanth slurry. The volume administered was 20 ml./kg. body weight.
(§2) The following Table gives the LD50 values after a 7 day observation period of the animals: […]

male mice (NMRI) = test: Acute toxicity on mice (LD50, 7 day observation); conditions: mouse, in vivo
Protocol: as §1, §2

CCN(CC)CCSC1=C(C#N)C(c2ccc(N(C)C)cc2)(c2cccnc2)C(=O)N1 (stereo not drawn) [Example 4a, 2-(2-diethylaminoethylthio)-4-(4-dimethylaminophenyl)-5-oxo-4-(3-pyridyl)-2-pyrrolin-3-carbonitril]
inhibition of the paw volume ([1]; 50 mg/kg intragastrally): 59%
inhibition of the paw volume ([1]; 100 mg/kg intragastrally): 77%
antiphlogistic properties (in words) [1]: most effective compounds
ulcer inhibition ([2]; 125 mg/kg intragastral): 84%
inhibition of gastric juice secretion ([3]; 62.5 mg/kg intragastral): 45%
inhibition of gastric juice secretion ([3]; 125 mg/kg intragastral): 64%
inhibition of gastric juice secretion ([3]; 250 mg/kg intragastral): 73%
LD50 at 168 h [4]: 800 mg/kg

CN(C)c1ccc(C2(c3cccnc3)C(=O)NC(SCCN3CCOCC3)=C2C#N)cc1 (stereo not drawn) [Example 4b, 4-(4-dimethylaminophenyl)-2-(2-morpholinoethylthio)-5-oxo-4-(3-pyridyl)-2-pyrroline-3-carbonitrile]
inhibition of gastric juice secretion ([3]; 50 mg/kg intragastral): 24%
inhibition of gastric juice secretion ([3]; 100 mg/kg intragastral): 63%
inhibition of gastric juice secretion ([3]; 200 mg/kg intragastral): 76%
LD50 at 168 h [4]: 400 mg/kg

CN(C)c1ccc(C2(c3cccnc3)C(=O)NC(SCCN3CCCCC3)=C2C#N)cc1 (stereo not drawn) [Example 4d, 4-(4-dimethylaminophenyl)-2-(2-piperidinoethylthio)-5-oxo-4-(3-pyridyl)-2-pyrroline-3-carbonitrile]
inhibition of the paw volume ([1]; 50 mg/kg intragastrally): 26%
inhibition of the paw volume ([1]; 125 mg/kg intragastrally): 83%
inhibition of gastric juice secretion ([3]; 125 mg/kg intragastral): 48%
inhibition of gastric juice secretion ([3]; 250 mg/kg intragastral): 76%
LD50 at 168 h [4]: 1600 mg/kg

CN(C)c1ccc(C2(c3cccnc3)C(=O)NC(SCCN3CCCC3)=C2C#N)cc1 (stereo not drawn) [Example 4e, 4-(4-dimethylaminophenyl)-2-(2-pyrrolidinoethylthio)-5-oxo-4-(3-pyridyl)-2-pyrroline-3-carbonitrile]
inhibition of the paw volume ([1]; 25 mg/kg intragastrally): 37%
inhibition of the paw volume ([1]; 50 mg/kg intragastrally): 70%
antiphlogistic properties (in words) [1]: most effective compounds
LD50 at 168 h [4]: > 1600 mg/kg

CN(C)CCSC1=C(C#N)C(c2ccc(N(C)C)cc2)(c2cccnc2)C(=O)N1 (stereo not drawn) [Example 4g, 2-(2-dimethylaminoethylthio)-4-(4-dimethylaminophenyl)-5-oxo-4-(3-pyridyl)-2-pyrroline-3-carbonitrile]
inhibition of the paw volume ([1]; 50 mg/kg intragastrally): 25%
inhibition of the paw volume ([1]; 100 mg/kg intragastrally): 61%
LD50 at 168 h [4]: 1600 mg/kg

CSC1=C(C#N)C(c2ccc(N(C)C)cc2)(c2cccnc2)C(=O)N1 (stereo not drawn) [Example 4i, 4-(4-dimethylaminophenyl)-2-methylthio-5-oxo-4-(3-pyridyl)-2-pyrroline-3-carbonitrile]
ulcer inhibition ([2]; 50 mg/kg intragastral): 88%
LD50 at 168 h [4]: > 1600 mg/kg
compatibility (in words) (male mice (NMRI)): good compatibility

CCN(CC)CCCSC1=C(C#N)C(c2ccc(N(C)C)cc2)(c2cccnc2)C(=O)N1 (stereo not drawn) [Example 4k, 2-(3-diethylaminopropylthio)-4-(4-dimethylaminophenyl)-5-oxo-4-(3-pyridyl)-2-pyrroline-3-carbonitrile]
ulcer inhibition ([2]; 50 mg/kg intragastral): 33%
ulcer inhibition ([2]; 100 mg/kg intragastral): 94%
LD50 at 168 h [4]: 300 mg/kg

N#CC1=C(SCCN2CCOCC2)NC(=O)C1(c1ccccc1)c1cccs1 (stereo not drawn) [Example 6c, 2-(2-morpholinoethylthio)-5-oxo-4-phenyl-4-(2-thienyl)-2-pyrroline-3-carbonitrile]
inhibition of the paw volume ([1]; 125 mg/kg intragastrally): 6%
inhibition of the paw volume ([1]; 250 mg/kg intragastrally): 45%
LD50 at 168 h [4]: > 1600 mg/kg

N#CC1=C(SCCN2CCCC2)NC(=O)C1(c1ccccc1)c1cccs1 (stereo not drawn) [Example 6f, 5-oxo-4-phenyl-2-(2-pyrrolidinoethylthio)-4-(2-thienyl)-2-pyrroline-3-carbonitrile]
inhibition of the paw volume ([1]; 125 mg/kg intragastrally): 24%
inhibition of the paw volume ([1]; 250 mg/kg intragastrally): 45%
LD50 at 168 h [4]: > 1600 mg/kg
